{
  "source": "patent US11033574B2",
  "about": "“Method for treating schizophrenia” (MiZ Company Limited, priority 2018, dated 2021)",
  "tested_on": "schizophrenia",
  "protocol": "At the initiation of hydrogen gas inhalation, a drug therapy with Abilify (intramuscular injection, 400 mg/month, once) and Lexotan tablets (oral administration, 6 mg/day, 3 times per day) was carried out.\nConditions of hydrogen gas inhalation were as follows:\nFor 40 days after initiation of inhalation: once per day, 70 mL/minute;\nThe subsequent 1 month: 2 hours per day, 70 mL/minute, hydrogen gas concentration: 3.0 to 4.0%;\nThe subsequent 4 months: 2 hours per day, 140 mL/minute, hydrogen gas concentration: 6.0 to 7.0%;\nThe subsequent 4 months: 6 hours per day, 280 mL/minute, hydrogen gas concentration: 6.0 to 7.0% (two hydrogen inhalers were used).\nThereafter, the patient was allowed to inhale hydrogen gas (6.0 to 7.0%, 280 mL/minute) for 6 hours/day, continuously for 9 months.",
  "key": {"[1]": {"conditions": "about 10 months after initiation of hydrogen inhalation"}},
  "data": [
    {"smiles": "[HH]", "note": "[hydrogen gas]", "values": [
      {"measurement": "time for which injection of a medicine (once a month) was continued after initiation of hydrogen inhalation, thereafter stopped", "setting": "Abilify intramuscular injection, 400 mg/month", "value": 8, "unit": "months"},
      {"measurement": "time after initiation of hydrogen inhalation at which administration of the oral medicine was terminated", "setting": "Lexotan tablets, oral, 6 mg/day, hydrogen once per day, 70 mL/minute", "value": "Ten"},
      {"measurement": "disease-state in the period during which hydrogen inhalation was continued", "setting": "[1]", "value": "stably maintained"},
      {"measurement": "phase of the disease", "setting": "[1]", "value": "recovery phase"},
      {"measurement": "time after initiation of inhalation when use of the sleeping pill was stopped", "setting": "brotizolam tablet, 0.25 mg/day", "value": "About 6 months"},
      {"measurement": "time after initiation of inhalation when the patient started to fall asleep without taking the sleeping pill", "setting": "brotizolam tablet, 0.25 mg/day, every day at initiation", "value": "about 2 months"},
      {"measurement": "value of the patient in the examination", "setting": "examination in January of 2019", "value": "the same as in a healthy person"},
      {"measurement": "disease state according to medical examination during an office visit", "setting": "further 9 months of hydrogen gas 6.0 to 7.0%, 280 mL/minute, 6 hours/day", "value": "stable"},
      {"measurement": "recurrence after inhalation of hydrogen gas was stopped", "setting": "inhalation stopped in March of 2019", "value": "no recurrence occurred"},
      {"measurement": "consecutive symptom, hallucination", "setting": "patient, schizophrenia onset 13 years ago, on Abilify and Lexotan, after initiation of hydrogen inhalation, 3.0 to 6.0%", "value": "disappeared"}
    ]}
  ]
}
